In US20140024653A1, “COMPOSITIONS AND METHODS FOR TREATING CANCER USING PI3K INHIBITOR AND MEK INHIBITOR” (priority 2011, published 2014):

Key:
[1] = tested on: HCT116 tumor vascular permeability; test: tumor vascular permeability, Evans Blue extravasation / Dextran-Fitc; assay type: in vivo, SCID mice; details: (1) 10 mg/kg oral daily day 11 to day 13
Description: HCT116 tumor cells were implanted subcutaneously in the intra-scapular region in SCID mice. […] Each agent was given by oral route on a daily schedule. Tumor growth was monitored throughout the experiment by callipering the tumors. To quantify tumor vascular permeability, tumors were excised under ketamine/Xylazine (120/6 mg/kg ip) anesthesia at day 13, 4 hours post last treatment, 30 min after 0.5% Evans Blue iv injection, and 2 min post Dextran-Fitc 100 mg/kg iv injection. Tumors were then snap frozen, and 25 μm sections obtained for fluorescence quantification. Tumors sections were imaged with Icyte at 488 nm for vascular Dextran-Fitc determination and at 633 nm for Evans-Blue extravasation determination. Respective fluorescence were quantified as the sum of integral phantoms of fluorescence intensity and expressed as the mean ratio of Evans-Blue signal/Dextran-Fitc Signal.

217 kinases = details: tested at 10 μM; cited from earlier work

O=C(NC[C@H](O)CO)c1ccncc1Nc1ccc(I)cc1F [Compound (1), N—((S)-2,3-dihydroxypropyl)-3-(2-fluoro-4-iodo-phenylamino)isonicotinamide]
decrease of the Evans-Blue/Dextran-Fitc ratio compared to control [1]: −9%
activity against 217 kinases (217 kinases): no activity
